Measured values published in PubChem BioAssay AID248 (DTP/NCI, 2004).
“And” between values parts separate entries of the source, which are not always exact repeats. Equal values may be shown once. Inconclusive results and toxic doses are left out. Cut-off read from the data, not from the text of the source: active = T/C of 150% or more; inactive = T/C below 125%. Peptide text beside a SMILES is read from it. * marks the point of attachment. Cbz = O=C(OCc1ccccc1)*; OBn = c1ccc(CO*)cc1; Bn = c1ccc(C*)cc1

Test system: L1210 leukemia ip in BDF1 mice, survival T/C
Assay: NCI In Vivo Anticancer Drug Screen. Data for tumor model L1210 Leukemia (intraperitoneal) in B6D2F1 (BDF1) mice
Conditions: endpoint: mean survival time, higher = longer survival
In short: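 Tumor cells were implanted, animals were treated, and survival was followed. The result divides the treated measurement by the vehicle-control measurement.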

[1] = dose: 50.0 mg/kg/injection, schedule: Q01DX001 (ip), vehicle: carboxymethylcellulose (CMC)
[2] = dose: 100.0 mg/kg/injection, schedule: Q01DX001 (ip), vehicle: carboxymethylcellulose (CMC)
[3] = dose: 200.0 mg/kg/injection, schedule: Q01DX001 (ip), vehicle: carboxymethylcellulose (CMC)
[4] = dose: 400.0 mg/kg/injection, schedule: Q01DX001 (ip), vehicle: carboxymethylcellulose (CMC)
[5] = dose: 100.0 mg/kg/injection, schedule: Q01DX009 (ip), vehicle: Klucel (hydroxypropylcellulose) (HPC)
[6] = dose: 200.0 mg/kg/injection, schedule: Q01DX009 (ip), vehicle: Klucel (hydroxypropylcellulose) (HPC)
[7] = dose: 100.0 mg/kg/injection, schedule: Q01DX009 (ip), vehicle: saline with Tween-80
[8] = dose: 100.0 mg/kg/injection, schedule: Q04DX003 (ip), vehicle: Klucel (hydroxypropylcellulose) (HPC)
[9] = dose: 200.0 mg/kg/injection, schedule: Q04DX003 (ip), vehicle: Klucel (hydroxypropylcellulose) (HPC)
[10] = dose: 400.0 mg/kg/injection, schedule: Q01DX009 (ip), vehicle: Klucel (hydroxypropylcellulose) (HPC)
[11] = dose: 400.0 mg/kg/injection, schedule: Q04DX003 (ip), vehicle: Klucel (hydroxypropylcellulose) (HPC)
[12] = dose: 100.0 mg/kg/injection, schedule: Q04DX002 (ip), vehicle: Klucel (hydroxypropylcellulose) (HPC)
[13] = dose: 200.0 mg/kg/injection, schedule: Q04DX002 (ip), vehicle: Klucel (hydroxypropylcellulose) (HPC)
[14] = dose: 400.0 mg/kg/injection, schedule: Q04DX002 (ip), vehicle: Klucel (hydroxypropylcellulose) (HPC)
[15] = dose: 100.0 mg/kg/injection, schedule: Q01DX001 (ip), vehicle: saline
[16] = dose: 200.0 mg/kg/injection, schedule: Q01DX001 (ip), vehicle: saline
[17] = dose: 400.0 mg/kg/injection, schedule: Q01DX001 (ip), vehicle: saline
[18] = dose: 25.0 mg/kg/injection, schedule: Q04DX002 (ip), vehicle: Klucel (hydroxypropylcellulose) (HPC)

Measured: T/C

C(=C\c1ccccc1)/C=N/Nc1nnc(N/N=C/C=C/c2ccccc2)c2ccccc12
inactive: [1] 102 % of control | [2] 94 % of control | [3] 102 % of control | [4] 90 % of control

CC(C)CC(NC(=O)C(CSCc1ccccc1)NC(=O)OCc1ccccc1)C(=O)OCc1ccccc1 (stereo not drawn) (Cbz-Cys(Bn)-Leu-OBn; configuration not given here)
inactive: dose: 100.0 mg/kg/injection, schedule: Q04DX003 (ip), vehicle: gum acacia 93 % of control | dose: 200.0 mg/kg/injection, schedule: Q04DX003 (ip), vehicle: gum acacia 93 % of control | dose: 400.0 mg/kg/injection, schedule: Q04DX003 (ip), vehicle: gum acacia 91 % of control

CNC(=O)Oc1ccccc1C(Cl)(Cl)Cl
inactive: dose: 50.0 mg/kg/injection, schedule: Q01DX009 (ip), vehicle: Klucel (hydroxypropylcellulose) (HPC) 97 % of control | [5] 101 % of control | [6] 112 % of control

CCC1C2CC3C4N(C)c5ccccc5C45CC(C2C5O)N3C1O (stereo not drawn)
inactive: dose: 50.0 mg/kg/injection, schedule: Q01DX009 (ip), vehicle: saline with Tween-80 100 % of control | [7] 103 % of control

O=c1[nH]c2cc(F)ccc2o1
inactive: [5] 103 % of control | [8] 104 % of control | [6] 101 % of control | [9] 103 % of control | [10] 111 % of control | [11] 111 % of control

O=C1NC(=O)C2C(c3ccccc3)=NOC2N1 (stereo not drawn)
inactive: [5] 103 % of control | [8] 97 % of control | [6] 103 % of control | [9] 90 % of control | [10] 98 % of control | [11] 97 % of control

CCOC(=O)Nc1ccc2c(c1)/C(=N\NC(=S)NC)c1ccccc1-2
inactive: dose: 75.0 mg/kg/injection, schedule: Q01DX001 (ip), vehicle: carboxymethylcellulose (CMC) 90 % of control | dose: 150.0 mg/kg/injection, schedule: Q01DX001 (ip), vehicle: carboxymethylcellulose (CMC) 92 % of control | dose: 300.0 mg/kg/injection, schedule: Q01DX001 (ip), vehicle: carboxymethylcellulose (CMC) 88 % of control

Cc1cc(Cl)ccc1OCC(=O)NCC(C)O (stereo not drawn)
inactive: [12] 100 % of control | [13] 98 % of control | [14] 98 % of control

CC12C(C#N)=C(c3ccccc3)C=C(c3ccccc3)C1=C(c1ccccc1)c1ccccc12 (stereo not drawn)
inactive: [5] 100 % of control | [8] 89 % of control | [6] 100 % of control | [9] 100 % of control | [10] 94 % of control | [11] 94 % of control

CC12CC3CC(Br)(C1)CC(C(=O)O)(C3)C2 (stereo not drawn)
inactive: dose: 50.0 mg/kg/injection, schedule: Q01DX009 (ip), vehicle: saline 103 % of control | dose: 100.0 mg/kg/injection, schedule: Q01DX009 (ip), vehicle: saline 96 % of control | dose: 100.0 mg/kg/injection, schedule: Q04DX003 (ip), vehicle: saline 103 % of control | dose: 200.0 mg/kg/injection, schedule: Q01DX009 (ip), vehicle: saline 91 % of control | dose: 200.0 mg/kg/injection, schedule: Q04DX003 (ip), vehicle: saline 101 % of control | dose: 400.0 mg/kg/injection, schedule: Q04DX003 (ip), vehicle: saline 110 % of control

N#CC12CCC(c3ccccc31)c1ccccc12
inactive: dose: 100.0 mg/kg/injection, schedule: Q04DX002 (ip), vehicle: gum acacia 99 % of control | dose: 200.0 mg/kg/injection, schedule: Q04DX002 (ip), vehicle: gum acacia 101 % of control | dose: 400.0 mg/kg/injection, schedule: Q04DX002 (ip), vehicle: gum acacia 92 % of control

O=C(O)/C=C\C(=O)Nc1ccccn1
inactive: [15] 92 % of control | [16] 100 % of control | [17] 103 % of control

OC1(c2ccccc2)c2ccccc2C(O)(c2ccccc2)c2c1ccc1ccccc21 (stereo not drawn)
inactive: [7] 93 % of control | dose: 400.0 mg/kg/injection, schedule: Q01DX009 (ip), vehicle: saline with Tween-80 93 % of control

CC(C)CC(C)OB(OC(C)CC(C)C)OC(C)CC(C)C (stereo not drawn)
inactive: [1] 102 % of control | [2] 111 % of control | [3] 102 % of control | [4] 96 % of control

O=C(O)/C=C(\F)C(=O)O
inactive: dose: 50.0 mg/kg/injection, schedule: Q01DX005 (ip), vehicle: water 109 % of control and 91 % of control | dose: 100.0 mg/kg/injection, schedule: Q01DX005 (ip), vehicle: water 96 % of control and 98 % of control | dose: 200.0 mg/kg/injection, schedule: Q01DX005 (ip), vehicle: water 107 % of control and 105 % of control

COc1cc([N+](=O)[O-])ccc1C#N
inactive: [8] 113 % of control | [11] 96 % of control

Cc1cc(C)c2c(c1)CC2N (stereo not drawn)
inactive: [18] 95 % of control | dose: 50.0 mg/kg/injection, schedule: Q04DX002 (ip), vehicle: Klucel (hydroxypropylcellulose) (HPC) 95 % of control | [12] 95 % of control and 103 % of control

CN1C2CC(=O)CC1C1CC2C1
inactive: dose: 12.5 mg/kg/injection, schedule: Q04DX002 (ip), vehicle: Klucel (hydroxypropylcellulose) (HPC) 98 % of control | [18] 94 % of control

c1ccc2c(c1)c(N1CCOCC1)nn1nnnc21
inactive: dose: 37.5 mg/kg/injection, schedule: Q04DX003 (ip), vehicle: saline 101 % of control | dose: 75.0 mg/kg/injection, schedule: Q04DX003 (ip), vehicle: saline 98 % of control | dose: 150.0 mg/kg/injection, schedule: Q04DX003 (ip), vehicle: saline 98 % of control

O=C1c2ccccc2C(=O)N1Nc1ccccc1
inactive: dose: 5.0 mg/kg/injection, schedule: Q01DX001 (ip), vehicle: carboxymethylcellulose (CMC) 96 % of control | dose: 10.0 mg/kg/injection, schedule: Q01DX001 (ip), vehicle: carboxymethylcellulose (CMC) 113 % of control | dose: 20.0 mg/kg/injection, schedule: Q01DX001 (ip), vehicle: carboxymethylcellulose (CMC) 105 % of control | dose: 40.0 mg/kg/injection, schedule: Q01DX001 (ip), vehicle: carboxymethylcellulose (CMC) 111 % of control | dose: 80.0 mg/kg/injection, schedule: Q01DX001 (ip), vehicle: carboxymethylcellulose (CMC) 94 % of control | [12] 110 % of control | [13] 97 % of control | [14] 103 % of control

CCC1CN2CCc3cc(OC)c(OC)cc3C2CC1CC1c2cc(OC)c(OC)cc2CCN1C(=O)C(N)Cc1ccccc1 (stereo not drawn)
inactive: [15] 107 % of control | [16] 97 % of control | [17] 110 % of control

C[C@@H](N)[C@@H](O)c1ccccc1
inactive: dose: 30.0 mg/kg/injection, schedule: Q01DX Z (oral), vehicle: saline 101 % of control | dose: 60.0 mg/kg/injection, schedule: Q01DX Z (oral), vehicle: saline 101 % of control

CCN(CC)C(C)CNc1cc(C)nc(/N=C(\N)Nc2ccc(Cl)c(Cl)c2)n1 (stereo not drawn)
inactive: dose: 2.35 mg/kg/injection, schedule: Q01DX009 (ip), vehicle: Klucel (hydroxypropylcellulose) (HPC) 110 % of control | dose: 4.69 mg/kg/injection, schedule: Q01DX009 (ip), vehicle: Klucel (hydroxypropylcellulose) (HPC) 100 % of control | dose: 9.38 mg/kg/injection, schedule: Q01DX009 (ip), vehicle: Klucel (hydroxypropylcellulose) (HPC) 98 % of control and 100 % of control | dose: 37.5 mg/kg/injection, schedule: Q01DX009 (ip), vehicle: Klucel (hydroxypropylcellulose) (HPC) 100 % of control | dose: 75.0 mg/kg/injection, schedule: Q01DX001 (ip), vehicle: other 97 % of control

O=C(O)C(Nc1cccc2ccccc12)c1ccccc1 (stereo not drawn)
inactive: [12] 97 % of control | [13] 111 % of control

O=C1c2ccccc2C(=O)C(Cl)C1Cl (stereo not drawn)
inactive: dose: 1.56 mg/kg/injection, schedule: Q04DX003 (ip), vehicle: other 97 % of control | dose: 3.13 mg/kg/injection, schedule: Q04DX003 (ip), vehicle: other 92 % of control | dose: 6.25 mg/kg/injection, schedule: Q04DX003 (ip), vehicle: other 96 % of control and 100 % of control

c1ccc(N2CC2)cc1
inactive: dose: 100.0 mg/kg/injection, schedule: Q01DX001 (ip), vehicle: Klucel (hydroxypropylcellulose) (HPC) 105 % of control | dose: 200.0 mg/kg/injection, schedule: Q01DX001 (ip), vehicle: Klucel (hydroxypropylcellulose) (HPC) 100 % of control | dose: 400.0 mg/kg/injection, schedule: Q01DX001 (ip), vehicle: Klucel (hydroxypropylcellulose) (HPC) 96 % of control
